Columns and labels:
Format in all cases: cell-based
human TLR8 = human TLR8 (Homo sapiens (Human), UniProt Q9NR97); assay: Human TLR8 assay (TLR8/NF-kB/SEAPorter HEK 293 Cell Line); conditions: SEAP induction, overnight incubation at 37° C., 0.1% DMSO; read-out: TLR8 pEC50 (converted)
Description: TLR8/NF-kB/SEAPorter™ HEK 293 Cell Line (Imgenex Corporation) is a stably co-transfected cell line which expresses full-length human TLR8 and the secreted alkaline phosphatase (SEAP) reporter gene under the transcriptional control of an NF-κB response element. TLR8 expression in this cell line has been tested by flow cytometry. Transfectants with stable expression were selected using the antibiotic blasticidin and geneticin. TLR signaling leads to the translocation of NF-κB and activation of the promoter results in expression of the SEAP gene. TLR8-specific activation was assessed by determining the level of SEAP produced following overnight incubation of the cells at 37° C. with the standard compound in the presence of 0.1% (v/v) dimethylsulfoxide (DMSO). Concentration dependent induction of SEAP production by compounds was expressed as the concentration of compound which produced half of the maximal level of SEAP induction for that compound (EC50).

human TLR7 = human TLR7 (Homo sapiens (Human), UniProt Q9NYK1); assay: Human TLR7 assay (SEAP reporter in HEK293); conditions: SEAP induction, overnight incubation at 37° C., 0.1% DMSO; read-out: TLR7 (pEC50) (converted)
human TLR7, sequence (Q9NYK1 27-1049): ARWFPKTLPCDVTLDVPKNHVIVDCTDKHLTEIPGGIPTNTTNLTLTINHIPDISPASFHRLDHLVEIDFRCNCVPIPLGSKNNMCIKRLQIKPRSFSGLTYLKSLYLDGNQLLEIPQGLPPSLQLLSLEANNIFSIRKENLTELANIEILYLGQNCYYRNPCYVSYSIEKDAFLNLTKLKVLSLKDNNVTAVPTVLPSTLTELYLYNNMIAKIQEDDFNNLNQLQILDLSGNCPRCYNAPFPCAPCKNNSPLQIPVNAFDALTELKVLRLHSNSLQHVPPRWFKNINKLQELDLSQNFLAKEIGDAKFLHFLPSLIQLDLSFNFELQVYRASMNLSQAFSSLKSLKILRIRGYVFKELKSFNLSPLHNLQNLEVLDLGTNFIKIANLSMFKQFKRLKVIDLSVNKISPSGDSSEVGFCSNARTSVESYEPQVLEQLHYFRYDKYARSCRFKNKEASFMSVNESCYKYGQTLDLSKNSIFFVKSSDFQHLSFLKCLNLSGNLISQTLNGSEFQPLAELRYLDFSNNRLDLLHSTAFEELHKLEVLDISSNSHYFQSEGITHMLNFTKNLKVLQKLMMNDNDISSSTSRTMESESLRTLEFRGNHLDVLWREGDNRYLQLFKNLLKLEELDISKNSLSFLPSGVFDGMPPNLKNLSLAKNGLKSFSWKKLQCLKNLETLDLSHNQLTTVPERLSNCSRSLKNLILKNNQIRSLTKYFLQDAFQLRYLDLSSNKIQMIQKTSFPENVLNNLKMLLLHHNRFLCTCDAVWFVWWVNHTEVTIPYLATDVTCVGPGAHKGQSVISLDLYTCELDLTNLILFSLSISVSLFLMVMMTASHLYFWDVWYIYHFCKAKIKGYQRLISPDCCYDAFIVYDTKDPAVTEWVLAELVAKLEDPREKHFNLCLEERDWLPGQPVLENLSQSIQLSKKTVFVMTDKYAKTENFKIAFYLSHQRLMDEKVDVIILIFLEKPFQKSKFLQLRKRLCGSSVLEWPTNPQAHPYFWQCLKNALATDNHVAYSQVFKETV
Description: Recombinant human TLR7 was stably expressed in a HEK293 cell line already stably expressing the pNiFty2-SEAP reporter plasmid; integration of the reporter gene was maintained by selection with the antibiotic zeocin. The most common variant sequence of human TLR7 (represented by the EMBL sequence AF240467) was cloned into the mammalian cell expression vector pUNO and transfected into this reporter cell-line. Transfectants with stable expression were selected using the antibiotic blasticidin. In this reporter cell-line, expression of secreted alkaline phosphatase (SEAP) is controlled by an NFkB/ELAM-1 composite promoter comprising five NFkB sites combined with the proximal ELAM-1 promoter. TLR signaling leads to the translocation of NFkB and activation of the promoter results in expression of the SEAP gene. TLR7-specific activation was assessed by determining the level of SEAP produced following overnight incubation of the cells at 37° C. with the standard compound in the presence of 0.1% (v/v) dimethylsulfoxide (DMSO). Concentration dependent induction of SEAP production by compounds was expressed as the concentration of compound which produced half of the maximal level of SEAP induction for that compound (EC50).

hERG ion channel = hERG ion channel (Homo sapiens (Human), UniProt Q12809); assay: hERG Analysis - Method 1 (IONWORKS HT, CHO-hERG cells); conditions: ~21° C.
hERG ion channel, sequence (Q12809 whole entry): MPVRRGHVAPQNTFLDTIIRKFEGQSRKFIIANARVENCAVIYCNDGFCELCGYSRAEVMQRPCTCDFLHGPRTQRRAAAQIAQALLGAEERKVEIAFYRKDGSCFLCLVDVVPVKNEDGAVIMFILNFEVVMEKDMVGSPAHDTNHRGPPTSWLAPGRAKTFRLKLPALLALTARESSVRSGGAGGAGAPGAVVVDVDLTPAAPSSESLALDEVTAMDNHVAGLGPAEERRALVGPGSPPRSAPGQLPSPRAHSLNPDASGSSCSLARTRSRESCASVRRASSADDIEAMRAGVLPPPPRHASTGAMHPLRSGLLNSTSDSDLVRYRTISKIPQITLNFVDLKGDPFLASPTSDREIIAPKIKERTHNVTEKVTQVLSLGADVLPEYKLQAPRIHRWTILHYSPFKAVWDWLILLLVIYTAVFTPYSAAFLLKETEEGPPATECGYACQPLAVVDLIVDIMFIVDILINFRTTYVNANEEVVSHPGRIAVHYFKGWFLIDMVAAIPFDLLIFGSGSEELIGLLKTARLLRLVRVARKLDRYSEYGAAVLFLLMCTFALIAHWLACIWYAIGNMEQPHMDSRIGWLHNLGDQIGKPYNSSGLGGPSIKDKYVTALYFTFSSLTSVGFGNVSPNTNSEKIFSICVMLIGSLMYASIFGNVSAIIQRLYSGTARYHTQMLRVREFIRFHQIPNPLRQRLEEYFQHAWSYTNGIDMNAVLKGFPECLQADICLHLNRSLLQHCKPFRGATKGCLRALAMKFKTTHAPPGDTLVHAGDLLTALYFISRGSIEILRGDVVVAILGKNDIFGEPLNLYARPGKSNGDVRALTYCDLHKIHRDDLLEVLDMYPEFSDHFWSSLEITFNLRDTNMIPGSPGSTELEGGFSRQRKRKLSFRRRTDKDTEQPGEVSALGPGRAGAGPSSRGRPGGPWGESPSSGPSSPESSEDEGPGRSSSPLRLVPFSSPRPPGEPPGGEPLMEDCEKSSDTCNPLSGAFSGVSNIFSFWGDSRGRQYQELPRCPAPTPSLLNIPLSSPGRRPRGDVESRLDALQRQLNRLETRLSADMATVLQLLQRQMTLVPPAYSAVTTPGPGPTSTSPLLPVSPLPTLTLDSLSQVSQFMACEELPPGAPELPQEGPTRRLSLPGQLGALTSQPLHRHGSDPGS
Method: The hERG-expressing Chinese hamster ovary K1 (CHO) cells described by (Persson, Carlsson, Duker, & Jacobson, 2005) were grown to semi-confluence at 37° C. in a humidified environment (5% CO2) in F-12 Ham medium containing L-glutamine, 10% foetal calf serum (FCS) and 0.6 mg/mL hygromycin (all available from Sigma-Aldrich). Prior to use, the monolayer was washed using a pre-warmed (37° C.) 3 mL aliquot of Versene 1:5,000 (Invitrogen) After aspiration of this solution the flask was incubated at 37° C. in an incubator with a further 2 mL of Versene 1:5,000 for a period of 6 minutes. Cells were then detached from the bottom of the flask by gentle tapping and 10 mL of Dulbecco's Phosphate-Buffered Saline containing calcium (0.9 mM) and magnesium (0.5 mM) (PBS; Invitrogen) was then added to the flask and aspirated into a 15 mL centrifuge tube prior to centrifugation (50 g, for 4 mins). The resulting supernatant was discarded and the pellet gently re-suspended in 3 mL of PBS. A 0.5 mL aliquot of cell suspension was removed and the number of viable cells (based on trypan blue exclusion) was determined in an automated reader (Cedex; Innovatis) so that the cell re-suspension volume can be adjusted with PBS to give the desired final cell concentration. It is the cell concentration at this point in the assay that is quoted when referring to this parameter. CHO-Kv1.5 cells, which were used to adjust the voltage offset on IONWORKS™ HT, were maintained and prepared for use in the same way.
The principles and operation of this device have been described by (Schroeder, Neagle, Trezise, & Worley, 2003). Briefly, the technology is based on a 384-well plate (PATCHPLATE™) in which a recording was attempted in each well by using suction to position and hold a cell on a small hole separating two isolated fluid chambers. Once sealing had taken place, the solution on the underside of the PATCHPLATE™ was changed to one containing amphotericin B. This permeablises the patch of cell membrane covering the hole in each well and, in effect, allowed a perforated, whole-cell patch clamp recording to be made.
A β-test IONWORKS™ HT from Essen Instrument was used. […] (˜21° C.), as follows. The reservoir in the “Buffer” position was loaded with 4 mL of PBS and that in the “Cells” position with the CHO-hERG cell suspension described above. A 96-well plate (V-bottom, Greiner Bio-one) containing the compounds to be tested (at 3-fold above their final test concentration) was placed in the “Plate 1” position and a PATCHPLATE™ was clamped into the PATCHPLATE™ station. […]

hERG potassium channel = hERG potassium channel (Homo sapiens (Human), UniProt Q12809); assay: hERG Analysis - Method 2 (QPATCH HT, CHO-hERG cells); conditions: half-maximal inhibition concentration, 22±2° C.
hERG potassium channel, sequence (Q12809 whole entry): as above
Method: The hERG potassium current was measured in a hERG-stably-expressing Chinese hamster ovary K1 (CHO) cells. The experiments were performed using an automated planar patch-clamp system QPATCH HT (Sophion Bioscience A/S). The application of pressure for forming gigaseals and whole-cell patch clamp configuration were established using the QPATCH assay software. Patch-clamp experiments were performed in voltage-clamp mode and whole-cell currents were recorded from individual cells. The following stimulation protocol was applied to investigate the effects of compounds on hERG potassium channel: The membrane potential was held at −80 mV and repetitively (every 15 s) depolarized to +20 mV for 5 s after the pulse to −50 mV for 20 ms served to define the baseline, followed by repolarizing step to −50 mV for 5 s to evaluate of the tail current amplitude. Experiments were conducted at room temperature (22±2° C.).
Effects of compounds were determined from cumulative applications of increasing 4 concentrations and calculated as percent of blocked current. The data points were fitted with Hill equation to calculate half-maximal inhibition concentrations. The test solution includes: Extracellular solution (mM): 2 mM of CaCl2, 1 mM of MgCl2, 10 mM of HEPES, 4 mM of KCl, 145 mM of NaCl, and 10 mM of Glucose; and Intracellular solution (mM): 5.4 mM of CaCl2, 1.8 mM of MgCl2, 10 mM of HEPES, 31 mM of KOH, 10 mM of EGTA, 120 mM of KCl, and 4 mM of ATP.

human TLR8, sequence (Q9NR97 27-1041): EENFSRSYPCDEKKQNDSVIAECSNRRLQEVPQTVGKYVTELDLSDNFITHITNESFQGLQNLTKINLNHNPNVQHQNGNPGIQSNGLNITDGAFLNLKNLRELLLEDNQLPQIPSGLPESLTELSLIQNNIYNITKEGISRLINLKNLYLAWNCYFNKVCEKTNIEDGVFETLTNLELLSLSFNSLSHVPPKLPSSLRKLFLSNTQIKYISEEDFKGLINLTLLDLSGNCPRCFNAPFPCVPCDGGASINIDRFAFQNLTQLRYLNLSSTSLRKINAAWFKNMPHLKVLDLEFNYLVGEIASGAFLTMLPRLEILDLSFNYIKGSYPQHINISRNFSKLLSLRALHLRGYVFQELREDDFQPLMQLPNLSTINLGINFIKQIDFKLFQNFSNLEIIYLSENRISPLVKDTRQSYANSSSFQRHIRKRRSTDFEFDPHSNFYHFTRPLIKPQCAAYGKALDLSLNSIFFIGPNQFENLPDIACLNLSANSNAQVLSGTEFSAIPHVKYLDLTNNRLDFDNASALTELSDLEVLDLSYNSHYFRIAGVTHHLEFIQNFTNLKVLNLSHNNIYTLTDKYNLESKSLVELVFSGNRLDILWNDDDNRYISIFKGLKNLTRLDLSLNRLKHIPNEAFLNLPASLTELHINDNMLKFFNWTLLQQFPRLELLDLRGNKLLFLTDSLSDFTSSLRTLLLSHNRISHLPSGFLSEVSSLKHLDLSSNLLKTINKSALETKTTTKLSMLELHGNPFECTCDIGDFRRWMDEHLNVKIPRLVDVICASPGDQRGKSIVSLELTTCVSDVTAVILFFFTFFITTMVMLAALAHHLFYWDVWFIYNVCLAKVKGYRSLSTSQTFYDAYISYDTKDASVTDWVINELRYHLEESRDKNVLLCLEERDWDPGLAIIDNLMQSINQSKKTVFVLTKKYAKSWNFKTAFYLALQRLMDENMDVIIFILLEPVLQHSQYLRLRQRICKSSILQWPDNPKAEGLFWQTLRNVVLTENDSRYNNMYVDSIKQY

| SMILES | EC50 (human TLR8) [nM] | EC50 (human TLR7) [nM] | IC50 (hERG ion channel) [nM] | IC50 (hERG potassium channel) [nM] |
| --- | --- | --- | --- | --- |
| CCC[C@@H](CCO)Nc1nc(N)nc(C)c1Cc1ccc(CN(CC)CC(=O)O)cc1OC [Example 1, (S)-2-((4-((2-amino-4-(1-hydroxyhexan-3-ylamino)-6-methylpyrimidin-5-yl)methyl)-3-methoxybenzyl)(ethyl)amino)acetic acid] | > 10000 | 158 | > 33000 | > 10000 |
| CCC[C@@H](CCO)Nc1nc(N)nc(C)c1Cc1ccc(CN(CC(=O)O)C(C)=O)cc1OC [Example 7, (S)-2-(N-(4-((2-amino-4-(1-hydroxyhexan-3-ylamino)-6-methylpyrimidin-5-yl)methyl)-3-methoxybenzyl)acetamido)acetic acid] | > 10000 | 251 |  | > 10000 |
| CCC[C@@H](CCO)Nc1nc(N)nc(C)c1Cc1ccc(OCCCN(CC(=O)O)CC(F)F)cc1OC [Example 12, (S)-2-((3-(4-((2-amino-4-(l-hydroxyhexan-3-ylamino)-6-methylpyrimidin-5-yl)methyl)-3-methoxyphenoxy)propyl)(2,2-difluoroethyl)amino)acetic acid] | > 10000 | 100 |  |  |
| CCC[C@@H](CCO)Nc1nc(N)nc(C)c1Cc1ccc(Cn2cncc2C(=O)O)cc1OC [Example 14, (S)-1-(4-((2-amino-4-(1-hydroxyhexan-3-ylamino)-6-methylpyrimidin-5-yl)methyl)-3-methoxybenzyl)-1H-imidazole-5-carboxylic acid] | > 10000 | 2000 |  |  |
| CCCCNc1nc(N)nc(C)c1Cc1ccc(CN(CC)CC(=O)O)cc1OC [Example 2, 2-((4-((2-amino-4-(butylamino)-6-methylpyrimidin-5-yl)methyl)-3-methoxybenzyl) (ethyl)amino)acetic acid] | > 10000 | 794 |  | > 10000 |
| CCC[C@@H](CCO)Nc1nc(N)nc(C)c1Cc1ccc(CN(CC)CCC(=O)O)cc1OC [Example 5, (S)-3-((4-((2-amino-4-(1-hydroxyhexan-3-ylamino)-6-methylpyrimidin-5-yl)methyl)-3-methoxybenzyl)(ethyl)amino)propanoic acid] | > 10000 | 50.1 | > 33000 | > 10000 |
| CCC[C@@H](CCO)Nc1nc(N)nc(C)c1Cc1ccc(CN(CCC(=O)O)CC(F)F)cc1OC [Example 6, (S)-3-((4-((2-amino-4-(1-hydroxyhexan-3-ylamino)-6-methylpyrimidin-5-yl)methyl)-3-methoxybenzyl)(2,2-difluoroethyl)amino)propanoic acid] | > 10000 | 251 | > 33000 | > 10000 |

Further lines, with some results ahead:

| EC50 (human TLR8) [nM] | EC50 (human TLR7) [nM] | SMILES | IC50 (hERG ion channel) [nM] | IC50 (hERG potassium channel) [nM] |
| --- | --- | --- | --- | --- |
| > 10000 | 200 | CCC[C@@H](CCO)Nc1nc(N)nc(C)c1Cc1ccc(CN2CCC[C@@H]2C(=O)O)cc1OC [Example 13, (R)-1-(4-((2-amino-4-((S)-1-hydroxyhexan-3-ylamino)-6-methylpyrimidin-5-yl)methyl)-3-methoxybenzyl)pyrrolidine-2-carboxylic acid] |  |  |
| > 10000 | 251 | CCC[C@@H](CCO)Nc1nc(N)nc(C)c1Cc1ccc(OCCCN(CC)CCC(=O)O)cc1OC [Example 10, (S)-3-((3-(4-((2-amino-4-(1-hydroxyhexan-3-ylamino)-6-methylpyrimidin-5-yl)methyl)-3-methoxyphenoxy)propyl)(ethyl)amino)propanoic acid] |  |  |
| > 10000 | 126 | CCC[C@@H](CCO)Nc1nc(N)nc(C)c1Cc1ccc(OCCCN2CCC[C@@H]2C(=O)O)cc1OC [Example 8, (R)-1-(3-(4-((2-amino-4-((S)-1-hydroxyhexan-3-ylamino)-6-methylpyrimidin-5-yl)methyl)-3-methoxyphenoxy)propyl)pyrrolidine-2-carboxylic acid] |  | > 10000 |
| > 10000 | 200 | CCC[C@@H](CCO)Nc1nc(N)nc(C)c1Cc1ccc(OCCCN2CCC[C@H]2C(=O)O)cc1OC [Example 9, (S)-1-(3-(4-((2-amino-4-((S)-1-hydroxyhexan-3-ylamino)-6-methylpyrimidin-5-yl)methyl)-3-methoxyphenoxy)propyl)pyrrolidine-2-carboxylic acid] |  | > 10000 |
| > 10000 | 200 | CCC[C@@H](CCO)Nc1nc(N)nc(C)c1Cc1ccc(OCCCN(CC)CC(=O)O)cc1OC [Example 11, (S)-2-((3-(4-((2-amino-4-(1-hydroxyhexan-3-ylamino)-6-methylpyrimidin-5-yl)methyl)-3-methoxyphenoxy)propyl)(ethyl)amino)acetic acid] |  |  |

Reference: patent publication US10150743B2, “Carboxylic acid compounds” (priority 2012, dated 2018)
